The text below walks through data of US10413505B1, “Pharmaceutical compositions and methods of using the same” (priority 2017, dated 2019).

Data set [1] concerns Sprague Dawley rats. As to the kind of experiment: Example 9 benzoylecgonine intranasal toxicity, Single-Dose Phase. Type of data set: in vivo, rat. On the procedure: Benzoylecgonine in the vehicle (deionized water) was administered by intranasal instillation once to a group (Group 2) of Sprague Dawley rats at a dose level of 8.8 mg/kg. […] The dose volume was 0.22 mL/kg, divided between the 2 nares, for both groups. Groups 1 and 2 each consisted of 20 animals/sex. Following dose administration, 9 to 10 animals/sex/group were euthanized on Study Day 1; the remaining 10 animals/sex/group were euthanized following a 14-day nondosing (recovery) period. Criteria for evaluation included daily mortality observations, daily clinical observations, detailed physical observations, body weights, food consumption, clinical pathology (hematology, coagulation, serum chemistry, and urinalysis), organ weights, gross pathology, and microscopic examination of select tissues.
(§1) Organization of Test Groups, Dosage Levels, and Treatment Regimen—The vehicle and test article formulations were administered by intranasal instillation into each naris via a syringe equipped with stainless steel-shafted, stainless steel ball-tipped dosing cannula once (Single-Dose Phase) or once daily for 14 consecutive days (Repeat-Dose Phase), through the day prior to the primary necropsy. The same syringe and dosing cannula was used to administer the dose across both nares for a given animal on a given dosing day. The total dose volume administered per dose was split approximately equally across each naris, such that approximately half of the total dose volume was administered into one naris, and the remaining was administered into the other naris. Treatment administration across each naris for an individual animal occurred at approximately the same time. The dose volume for all groups was 0.22 mL/kg. Individual doses were based on the most recently recorded body weights. Adjusted doses became effective the day of collection of the weekly body weights. The first day of dosing was Study Day 0; the first week of dosing was Study Week 0.
(§2) All animals were observed twice daily, once in the morning and once in the afternoon, for mortality and moribundity. Animals found dead were examined macroscopically as soon as possible to ensure that tissues were not lost due to autolysis.
(§3) Clinical examinations were performed at the time of dose administration and 1 to 2 hours following dose administration. During the recovery period, the animals were observed once daily. The absence or presence of findings was recorded for individual animals at the scheduled intervals. For the Single-Dose Phase, detailed physical examinations were conducted on all animals within 4 days of receipt, on the day of randomization, and on Study Days 0, 1 (for animals scheduled for necropsy), 7, and 14. For the Repeat-Dose Phase, detailed physical examinations were conducted on all animals within 4 days of receipt, on the day of randomization, weekly (t 2 days) during the study period, and on the day of the scheduled necropsies (see Appendix 1—Study Protocol and Deviations). Daily observations during the recovery period were not necessary on days when detailed physical examinations were conducted.
(§4) Individual body weights were recorded within 4 days of receipt, on the day of randomization, Study Day 0 (prior to dosing), weekly (±2 days) during the study period, and on the day prior to the scheduled necropsies (nonfasted). Mean body weights and mean body weight changes were calculated for the corresponding intervals. Final body weights (fasted) were recorded on the day of the scheduled necropsies.
(§5) Cage food weights were recorded once weekly (±2 days) beginning following randomization and throughout the study period. Food consumption was calculated as g/animal/day for the corresponding body weight intervals.
(§6) Blood and urine samples for clinical pathology evaluations (hematology, coagulation, serum chemistry, and urinalysis) were collected from all animals assigned to the scheduled necropsies. […]

The subject of data set [2] is Sprague Dawley rats. The experiment in a line: Example 9 benzoylecgonine intranasal toxicity, Repeat-Dose Phase. Type of data set: in vivo, rat. On the procedure: Benzoylecgonine in the vehicle was administered by intranasal instillation once daily for 14 days to a group (Group 2) of Sprague Dawley rats at a dosage level of 8.8 mg/kg/day. […] The dose volume was 0.22 mL/kg, divided between the 2 nares, for both groups. Groups 1 and 2 each consisted of 15 animals/sex. Following 14 days of dose administration, 10 animals/sex/group were euthanized; the remaining 5 animals/sex/group were euthanized following a 14-day nondosing (recovery) period. Criteria for evaluation included daily mortality observations, daily clinical observations, detailed physical observations, body weights, food consumption, clinical pathology (hematology, coagulation, serum chemistry, and urinalysis), organ weights, gross pathology, and microscopic examination of select tissues.
as §1, §2, §3, §4, §5, §6

Data set [3] can be described thus: Benzoylecgonine solubility in water. The class given is physicochemical. Conditions: deionized water vehicle. On the procedure: Deionized water was chosen as the vehicle for this study to avoid any vehicle-related local toxicity. Benzoylecgonine is soluble in water up to approximately 40 mg/mL.
Data set [4] can be described thus: Literature disposition of cocaine (intravenous clearance, urinary elimination). Type of data set: in vivo, human. Conditions: humans. The source says: In humans, cocaine is eliminated predominantly by metabolism, with little excreted unchanged in the urine. Only 1% to 10% of a dose of cocaine is eliminated unmetabolized in urine.
The mark [5] stands for this setting: 8.8 mg/kg once, intranasal instillation.
The mark [6] stands for this setting: 8.8 mg/kg/day for 14 days, intranasal instillation.

Take `CN1[C@H]2CC[C@@H]1[C@@H](C(=O)O)[C@@H](OC(=O)c1ccccc1)C2` [BE, benzoylecgonine]: in the data set on Sprague Dawley rats [1] (setting [5]), the body weights entry is given as “unaffected”; the clinical observations result is “no test article-related clinical observations”; the food consumption result is given as “unaffected”; the “hematology and coagulation parameters” value is listed as “unaffected”. For the same compound, in the data set on Sprague Dawley rats [1] (setting [5]), the “macroscopic examination at necropsy” value was “No test article-related macroscopic findings”, the organ weights result was “No test article-related organ weight findings”, the serum chemistry parameters entry is reported as “unaffected” and the survival entry is recorded as “no test article-related effects on survival”. In addition, the urinalysis parameters result in the data set on Sprague Dawley rats [1] (setting [5]) is on record as “unaffected”. Moreover, the “microscopic examination (nasal cavity with turbinates)” value in the data set on Sprague Dawley rats [1] (8.8 mg/kg once, intranasal instillation, also after 14-day recovery) was “No test article-related microscopic findings”. In the data set on Sprague Dawley rats [1] (Single-Dose Phase, 40 mg/mL in deionized water, pH meter), the “pH of the dosing formulation” value was found to be 6.32. Also, the tolerability result in the data set on Sprague Dawley rats [2] (8.8 mg/kg once or once daily for 14 days, intranasal instillation) was “well tolerated”. Also, in the data set with Sprague Dawley rats [2] (setting [6]), the clinical observations entry is “no test article-related clinical observations”; the food consumption entry is given as “unaffected”; the “hematology and coagulation parameters” value is “unaffected”; the “macroscopic examination at necropsy” value is recorded as “No test article-related macroscopic findings”. Further, in the data set with Sprague Dawley rats [2] (setting [6]), the organ weights entry is listed as “No test article-related organ weight findings”, the serum chemistry parameters entry is listed as “unaffected”, the survival result is on record as “All animals survived” and the urinalysis parameters result is reported as “unaffected”. For the same compound, in the data set on Sprague Dawley rats [2] (8.8 mg/kg/day for 14 days, intranasal instillation, also after 14-day recovery), the “microscopic examination (nasal cavity with turbinates)” value is “No test article-related microscopic findings”. The body weights entry in the data set on Sprague Dawley rats [2] (8.8 mg/kg/day for 14 days, intranasal instillation, dosing period) is “unaffected”. The “pH of the dosing formulation” value in the data set on Sprague Dawley rats [2] (Repeat-Dose Phase, 40 mg/mL in deionized water, pH meter) came out at 6.32. The “no-observed-effect level (NOEL)” value with Sprague Dawley rats [2] (intranasal instillation once or once daily for 14 days) worked out at 8.8 mg/kg/day. For the same compound, in data set [3], the solubility in water result is reported as “approximately 40 mg/mL”.

In the case of `COC(=O)[C@H]1[C@@H](OC(=O)c2ccccc2)C[C@@H]2CC[C@H]1N2C` [Cocaine, cocaine, reference compound], in data set [4], the “CLr as percent of CL” value is on record as “less than 2%” and the “CLr as percent of human glomerular filtration rate (125 mL/min)” value is recorded as “less than 40%”.
